Entries after “also recorded” stand apart in the source; their conditions may differ. Read-outs that look alike come from different tables or passages of the source. Where a SMILES comes first, the peptide text is derived from it. [ ]: non-standard residue; d: D form. The star is where a group is joined. sY = N[C@@H](Cc1ccc(OS(=O)(=O)O)cc1)C(=O)O; Cbz = O=C(OCc1ccccc1)*; Boc = CC(C)(C)OC(=O)*
Legend:
CCK receptor = settings: structure-function studies; cited from earlier work
[1] = biological target: T1, CCK receptor (rat pancreas membranes) (Rattus norvegicus, UniProt P30551); assay: 125I-CCK receptor binding (pancreas); settings: for effect on the 125I-CCK receptor binding assay: added as protease inhibitor
T1 construct: The whole pancreas was dissected free of fat tissue and was homogenized; from tissue; host or cells: pancreas of male Sprague-Dawley rats (membranes)
T1 sequence (P30551 1-444): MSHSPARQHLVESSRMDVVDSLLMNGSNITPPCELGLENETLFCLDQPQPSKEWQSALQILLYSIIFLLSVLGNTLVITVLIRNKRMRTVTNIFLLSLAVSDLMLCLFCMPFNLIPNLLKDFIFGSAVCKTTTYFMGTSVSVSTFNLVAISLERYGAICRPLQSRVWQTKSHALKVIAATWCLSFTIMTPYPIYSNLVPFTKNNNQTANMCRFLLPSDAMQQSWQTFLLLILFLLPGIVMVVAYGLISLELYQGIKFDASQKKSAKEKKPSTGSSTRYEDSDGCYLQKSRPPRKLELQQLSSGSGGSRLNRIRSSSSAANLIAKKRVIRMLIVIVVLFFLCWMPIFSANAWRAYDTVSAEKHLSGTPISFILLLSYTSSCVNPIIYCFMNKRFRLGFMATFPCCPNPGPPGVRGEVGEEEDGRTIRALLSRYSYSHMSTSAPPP
Method: CCK-33 was radiolabeled with ^125 I-Bolton Hunter reagent (2000 Ci/mmole) as described by Sankara et al. (J. Biol. Chem. 254: 9349-9351, 1979). Receptor binding was performed according to Innis and Snyder (Proc. Natl. Acad. Sci. 77: 6917-6921, 1980) with the minor modification of adding the additional protease inhibitors, phenylmethane sulfonyl fluoride and o-phenanthroline. The latter two compounds have no effect on the ^125 I-CCK receptor binding assay.
Male Sprague-Dawley rats (200-350 g) were sacrificed by decapitation. The whole pancreas was dissected free of fat tissue and was homogenized in 20 volumes of ice-cold 50 mM, Tris HCl (pH 7.7 at 25° C.) with a Brinkmann Polytron PT 10. The homogenates were centrifuged at 48,000 g for 10 min. Pellets were resuspended in Tris Buffer, centrifuged as above and resuspended in 200 volumes of binding assay buffer (50 mM Tris HCl, pH 7.7 at 25° C., 5 mM dithiothrietol, 0.1 mM bacitracin, 1.2 mM phenylmethane sulfonyl fluoride and 0.5 mM o-phenanthroline). […] All assays were run in duplicate or triplicate. The reaction mixtures were incubated at 37° C. for 30 minutes and centrifuged in a Beckman Microfuge (4 minutes) immediately after adding 1 ml of ice-cold incubation buffer. The supernatant was aspirated and discarded, pellets were counted with a Beckman gamma 5000. For Scatchard analysis (Ann. N.Y. Acad. Sci. 51: 660, 1949), ^125 I-CCK-33 was progressively diluted with increasing concentrations of CCK-33

[2] = biological target: T2, CCK receptor (guinea pig cerebral cortex) (Cavia porcellus, UniProt H0VZC5); assay: 125I-CCK receptor binding (brain); settings: 125I-CCK-33, guinea pig cerebral cortex, 25° C., 2 hours
T2 construct: Cerebral cortex was dissected and used as a receptor source; from tissue; host or cells: cerebral cortex of male Hartley guinea pigs (membranes)
T2 sequence (H0VZC5 entry or part of it): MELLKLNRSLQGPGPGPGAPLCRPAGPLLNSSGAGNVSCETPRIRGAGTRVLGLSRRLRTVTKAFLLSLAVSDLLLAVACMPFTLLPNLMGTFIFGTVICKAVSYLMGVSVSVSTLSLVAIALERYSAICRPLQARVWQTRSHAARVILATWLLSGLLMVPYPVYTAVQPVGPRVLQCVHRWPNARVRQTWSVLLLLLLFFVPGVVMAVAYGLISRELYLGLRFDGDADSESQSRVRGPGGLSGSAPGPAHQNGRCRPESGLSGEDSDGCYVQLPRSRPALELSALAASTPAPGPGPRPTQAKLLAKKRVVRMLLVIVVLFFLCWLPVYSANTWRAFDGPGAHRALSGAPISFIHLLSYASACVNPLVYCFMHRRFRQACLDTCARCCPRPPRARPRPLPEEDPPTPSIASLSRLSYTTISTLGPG
Method: CCK-33 was radiolabeled and the binding was performed according to the description for the pancreas method with modifications according to Saito et al., J. Neurochem. 37, 483-490, 1981.
Male Hartley guinea pigs (300-500 g) were sacrificed by decapitation and the brains were removed and placed in ice-cold 50 mM, Tris HCl plus 7.58 g/l Trizma-7.4 (pH 7.4 at 25° C.). Cerebral cortex was dissected and used as a receptor source. Each gram of fresh guinea pig brain tissue was homogenized in 10 ml of Tris Trizma buffer with a Brinkman polytron PT-10. The homogenates were centrifuged at 42,000 g for 15 min. […] All assays were run in duplicate or triplicate. The reaction mixtures were incubated at 25° C. for 2 hours and centrifuged in a Beckman Microfuge (4 minutes) immediately after adding 1 ml of ice-cold incubation buffer. The supernatant was aspirated and discarded, pellets were counted with a Beckman gamma 5000.

gastrin receptor = biological target: T3, gastrin receptor (Cavia porcellus, UniProt H0VZC5); assay: Gastrin receptor binding in guinea pig gastric glands; settings: guinea pig gastric mucosal glands
T3 construct: Gastric mucosa from guinea pigs (300-500 g body weight, male Hartley) were washed thoroughly and minced; from tissue; host or cells: gastric mucosal glands of male Hartley guinea pigs
T3 sequence (H0VZC5 entry or part of it): as above
Method: Gastrin antagonist activity of compounds of Formula I is determined using the following assay: […]
GASTRIN RECEPTOR BINDING IN GUINEA PIG GASTRIC GLANDS
Guinea pig gastric mucosal glands were prepared by the procedure of Berglingh and Obrink Acta Physiol. Scand. 96: 150 (1976) with a slight modification according to Praissman et al. C. J. Receptor Res. 3: (1983). Gastric mucosa from guinea pigs (300-500 g body weight, male Hartley) were washed thoroughly and minced with fine scissors in standard buffer consisting of the following: 130 mM NaCl, 12 mM NaHCO3, 3 mM NaH2 PO4, 3 mM Na2 HPO4, 3 mM K2 HPO4, 2 mM MgSO4, 1 mM CaCl2, 5 mM glucose and 4 mM L-glutamine, 25 mM HEPES at pH 7.4. The minced tissues were washed and then incubated in a 37° C. shaker bath for 40 minutes with the buffer containing 0.1% collagenase and 0.1% BSA and bubbled with 95% O2 and 5% CO2. The tissues were passed twice through a 5 ml glass syringe to liberate the gastric glands, and then filtered through 200 mesh nylon. The filtered glands were centrifuged at 270 g for 5 minutes and washed twice by resuspension and centrifugation.

gastrin = settings: in vitro; cited from earlier work
[3] = 125I-CCK-33, rat pancreas, 37° C., 30 minutes, read-out: IC50 (uM) 125I-CCK Pancreas

Structure (SMILES) | IC50 [1, 3] [µM] | IC50 [2] [µM] | further results
CSCC[C@H](NC(=O)OC(C)(C)C)C(=O)N[C@@H](CC(=O)O)C(=O)N[C@@H](Cc1ccccc1)C(N)=O [Boc-Met-Asp-Phe-NH2] (Boc-Met-Asp-Phe-NH2) | – | – | CCK antagonist activity (CCK receptor): can function as CCK antagonists
CSCC[C@H](NC(=O)[C@H](Cc1ccc(OS(=O)(=O)O)cc1)NC(=O)OCc1ccccc1)C(=O)NCC(=O)N[C@@H](Cc1c[nH]c2ccccc12)C(=O)N[C@@H](CCSC)C(=O)N[C@@H](CC(=O)O)C(N)=O [Cbz-Tyr(SO3 H)-Met-Gly-Trp-Met-Asp-NH2] (Cbz-[sY]MGWMD-NH2) | – | – | CCK antagonist activity (CCK receptor): can function as CCK antagonists; also recorded: partial agonist
Fc1ccccc1C1=N[C@H](Cc2c[nH]c3ccccc23)C(Nc2ccccc2)=Nc2ccccc21 [Example 1, 2-Phenylamino-3(R)-(3'-indolyl)methyl-5-(2'-fluorophenyl)-2H-1,4-benzodiazepine] | 34 | 100 | –
NC1=Nc2ccccc2C(c2ccccc2F)=N[C@@H]1Cc1c[nH]c2ccccc12 [Example 3, 2-Amino-3(R)-(3'-indolyl)methyl-5-(2'-fluorophenyl)-2H-1,4-benzodiazepine] | – | – | IC50 [1]: 1.7 µM
CNC1=Nc2ccccc2C(c2ccccc2F)=N[C@@H]1Cc1c[nH]c2ccccc12 [Example 4, 2-Methylamino-3(R)-(3'-indolyl)methyl-5-(2'-fluorophenyl)-2H-1,4-benzodiazepine] | 4.5 | > 100 | IC50 (gastrin receptor): 67 µM
CCOC(=O)CNC1=Nc2ccccc2C(c2ccccc2F)=N[C@@H]1Cc1c[nH]c2ccccc12 [Example 5, 2-Ethoxycarbonylmethylamino-3(R)-(3'-indolyl)methyl-5-(2'-fluorophenyl)-2H-1,4-benzodiazepine] | 23 | 49 | –
N#CNC1=Nc2ccccc2C(c2ccccc2F)=N[C@@H]1Cc1c[nH]c2ccccc12 [Example 6, 2-Cyanoamino-3(R)-(3'-indolyl)methyl-5-(2'-fluorophenyl)-2H-1,4-benzodiazepine] | 2 | 100 | –
CCCNC1=Nc2ccccc2C(c2ccccc2F)=N[C@@H]1Cc1c[nH]c2ccccc12 [Example 7, 2-Propylamino-3(R)-(3'-indolyl)methyl-5-(2-fluorophenyl)-2H-1,4-benzodiazepine] | – | > 100 | IC50 [1]: 2.7 µM
O=C(O)CNC1=Nc2ccccc2C(c2ccccc2F)=N[C@@H]1Cc1c[nH]c2ccccc12 [Example 8, 2-Carboxymethylamino-3(R)-(3'-indolyl)methyl-5-(2'-fluorophenyl)-2H-1,4-benzodiazepine] | 3.6 | 31 | IC50 (gastrin receptor): 2.7 µM
O=C(O)CNC1=Nc2ccccc2C(c2ccccc2)=NC1NC(=O)Nc1ccc(Cl)cc1 (centres unmarked) [Example 9, N-[3-(((4-Chlorophenyl)aminocarbonyl)amino)-5-phenyl-3H-1,4-benzodiazepin-2-yl]-glycine] | 0.069 | 0.11 | IC50 (gastrin receptor): 0.032 µM
CCOC(=O)CNC1=Nc2ccccc2C(c2ccccc2)=NC1NC(=O)Nc1ccc(Cl)cc1 (centres unmarked) [Example 10, N-[3-(((4-Chlorophenyl)aminocarbonyl)amino)-5-phenyl-3H-1,4-benzodiazepin-2-yl]-glycine ethyl ester] | 1.4 | – | –
CSCC[C@H](N)C(=O)N[C@@H](CC(=O)O)C(=O)N[C@@H](Cc1ccccc1)C(N)=O [Met-Asp-Phe-NH2] (H-Met-Asp-Phe-NH2) | – | – | CCK antagonist activity (CCK receptor): can function as CCK antagonists
CCCC(=O)Nc1nc2c(ncn2[C@@H]2O[C@@H]3COP(=O)(O)O[C@H]3[C@H]2OC(=O)CCC)c(=O)[nH]1 [dibutyryl cyclic GMP] | – | – | CCK antagonist activity (CCK receptor): the most potent
c1cnc2c(c1)ccc1cccnc12 [o-phenanthroline, reference compound] | – | – | effect on the 125I-CCK receptor binding assay [1]: no effect
O=S(=O)(F)Cc1ccccc1 [phenylmethane sulfonyl fluoride, reference compound] | – | – | effect on the 125I-CCK receptor binding assay [1]: no effect
CCCN(CCC)C(=O)C(CCC(=O)O)NC(=O)c1ccccc1 (centres unmarked) [proglumide] | – | – | gastrin antagonist activity (gastrin): very weak in vitro antagonists
